The values that follow are results of earlier work, collected in US20110150946A1 (priority 2008, published 2011).

The conditions of the data set: sublingual apomorphine 4 mg per patient.

Consider `CN1CCc2cccc3c2[C@H]1Cc1ccc(O)c(O)c1-3` [apomorphine, 5,6,6a,7-tetrahydro-6-methyl-4H-dibenzo[de, g]quinoline-10,11-diol], for which the nausea incidence is 14.1%.
